# Experimental data from the supplement of paper PMC10307832.
# Tests used:
# Test in all cases: relative viability (nuclei count vs DMSO), 5 days (fraction); higher = more cells survive
# [1] = compound: COC1=CC(c2cc3ccccc3[nH]2)=N/C1=C\c1[nH]c(C)cc1C [Obatoclax] + CS(=O)(=O)CCNCc1ccc(-c2ccc3ncnc(Nc4ccc(OCc5cccc(F)c5)c(Cl)c4)c3c2)o1 [Lapatinib] (partner 2 µM)
# Procedure, shortened: (§1)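 For relative viability, nuclei counts in treated wells were divided by those in vehicle wells. Lung cancer cell lines had been pin-tool dosed in 1536-well plates the day after seeding and cultured for 5 days, then fixed and stained in one step (final 0.05% Triton X-100, 1% formaldehyde, 1 ug/ml Hoechst) and imaged at 4×. Doses were one drug alone or a fixed anchor-drug dose plus five library-drug doses (not always all listed) in √10 steps, and values are duplicate-plate medians.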
# [2] = compound: CC1=CC(=NN1)NC2=CC(=NC(=N2)/C=C/C3=CC=CC=C3)N4CCN(CC4)C + Nc1ncn([C@H]2C[C@H](O)[C@@H](CO)O2)c(=O)n1 [Decitabine] (partner 2 µM)
# Procedure, shortened: as §1
# [3] = compound: CC(C)C[C@H](NC(=O)[C@H](Cc1ccccc1)NC(=O)c1cnccn1)B(O)O [Bortezomib] + O=C(CCCCCCC(=O)Nc1ccccc1)NO [Vorinostat] (partner 1 µM)
# Procedure, shortened: as §1
# [4] = compound: CC(C)C[C@H](NC(=O)[C@H](Cc1ccccc1)NC(=O)c1cnccn1)B(O)O [Bortezomib] + CS(=O)(=O)CCNCc1ccc(-c2ccc3ncnc(Nc4ccc(OCc5cccc(F)c5)c(Cl)c4)c3c2)o1 [Lapatinib] (partner 2 µM)
# Procedure, shortened: as §1
Cell Line,relative viability ([1]; first compound 0.01 µM),relative viability ([1]; first compound 0.03162 µM),relative viability ([1]; first compound 0.1 µM),relative viability ([1]; first compound 0.3162 µM),relative viability ([1]; first compound 1 µM),relative viability ([2]; first compound 0.08 µM),relative viability ([2]; first compound 0.253 µM),relative viability ([2]; first compound 0.8 µM),relative viability ([2]; first compound 2.53 µM),relative viability ([2]; first compound 8 µM),relative viability ([3]; first compound 0.0002 µM),relative viability ([3]; first compound 0.000632 µM),relative viability ([3]; first compound 0.002 µM),relative viability ([3]; first compound 0.006325 µM),relative viability ([3]; first compound 0.02 µM),relative viability ([4]; first compound 0.0002 µM),relative viability ([4]; first compound 0.000632 µM),relative viability ([4]; first compound 0.002 µM),relative viability ([4]; first compound 0.006325 µM),relative viability ([4]; first compound 0.02 µM)
PC-3 [JPC-3],0.456,0.406,0.469,0.443,0.457,0.807,0.882,0.806,0.834,0.543,0.675,0.82,0.444,0.22,0.203,0.469,0.453,0.49,0.364,0.16
HCC-44,1.08,0.891,0.955,0.876,0.37,0.967,0.965,0.909,0.87,0.845,1.07,1.07,1.1,0.557,0.328,0.977,1.02,0.953,0.658,0.118
NCI-H2405,1.05,1.26,,1.08,1.13,0.758,0.618,0.687,0.615,0.171,0.977,1.02,0.812,0.133,0.119,0.817,,1.01,0.112,0.121
LXF-289,0.893,0.903,0.934,0.832,0.624,0.371,0.383,0.324,0.288,0.248,0.732,0.734,0.896,0.0875,0.0888,0.908,0.871,0.949,0.115,0.104
LOU-NH91,0.826,0.73,0.669,0.603,0.59,0.793,0.856,0.807,0.809,0.473,0.88,0.816,0.413,0.313,0.359,0.795,0.704,0.454,0.334,0.287
A549,0.933,1.1,0.997,0.966,0.125,0.21,0.394,0.212,0.104,0.0286,,,,,,0.981,0.872,0.957,0.0567,0.0601
H3255,0.51,0.244,0.327,0.256,0.315,0.52,0.54,0.496,0.499,0.249,0.811,0.827,0.748,0.253,0.244,0.261,0.209,0.24,0.191,0.179
NCI-H1395,1,0.943,0.79,1.09,0.592,0.7,0.771,0.708,0.514,0.291,0.762,0.547,0.515,0.301,0.306,0.998,0.79,0.449,0.499,0.28
LC-2-ad,0.977,0.906,0.802,0.817,0.867,0.821,0.809,0.744,0.463,0.187,0.74,0.68,0.665,0.209,0.185,0.73,,0.928,0.258,0.1
NCI-H838,1.07,1.17,0.465,0.62,0.377,0.487,0.416,0.384,0.208,0.141,0.683,0.752,0.676,0.157,0.144,0.897,0.982,0.936,0.121,0.114
Calu-6,1.03,1.09,1.04,0.842,0.244,,,,,,,,,,,0.961,1.03,1.02,0.138,0.109
SW 900,,,,,,0.426,0.377,0.413,0.277,0.139,0.482,0.54,0.163,0.169,0.173,,,,,
LCLC-97TM1,0.835,0.936,1.3,0.906,1.21,0.176,0.22,0.244,0.182,0.0703,0.615,0.695,0.748,0.148,0.0598,0.651,0.701,0.749,0.248,0.118
HCC-15,0.854,0.801,0.747,0.723,0.581,0.592,0.654,0.655,0.108,0.0983,0.864,0.892,0.729,0.107,0.094,0.824,0.943,0.817,0.38,0.0867
CAL-12T,0.609,0.733,0.755,0.392,0.287,,,,,,0.781,0.922,0.691,0.281,0.0995,0.683,0.617,0.561,0.246,0.201
NCI-H727,0.949,0.792,0.798,0.715,0.457,0.515,0.699,0.882,0.793,0.412,1.29,1.06,1.36,1.1,1.02,0.654,0.872,0.864,0.229,0.113
ABC-1,0.87,1.15,1.25,1.04,1.33,1.02,0.954,1.1,0.811,0.268,0.689,0.415,0.288,0.29,0.312,0.941,1.06,0.605,0.606,0.495
